The results in this text go back to the Deep4Chem optical property database.

The nature of the series: solvent given as SMILES.
[1] abbreviates: in c1cc(-c2cccc(-n3c4ccccc4c4ccccc43)c2)cc(-n2c3ccccc3c3ccccc32)c1.

Take `N#Cc1c(-n2c3ccccc3c3ccccc32)nc(-n2c3ccccc3c3ccccc32)c(C#N)c1-c1ccccc1`: the emission maximum under setting [1] was 475 nm.

Consider `Cn1c(=O)c(/N=N/c2cc(S(=O)(=O)O)ccc2C(=O)O)c(O)c2ccccc21`, for which the emission maximum turned out to be 523 nm (in C1CCOC1); 538 nm (in CC(C)=O); 528 nm (in CCOC(C)=O); 532 nm (in CO); 486 nm (in CS(C)=O); 509 nm (in Cc1ccccc1). The emission maximum amounted to 516 nm (in ClCCl) and 553 nm (in O).

Turning to `C(=C\c1ncnc2ccccc12)/c1ccc(N(c2ccccc2)c2ccccc2)cc1`, the emission maximum is recorded as 463 nm (in C1CCCCC1); 540 nm (in C1CCOC1); 598 nm (in CC#N); 600 nm (in CS(C)=O); 571 nm (in ClCCl).

`Cn1cc(/C=C/C(=O)c2ccccc2)c2ccccc21` registered an emission maximum (in CC#N) of 419.32 nm and an emission maximum (in CO) of 446.19 nm.

Take `[NH3+]C(Cc1c[nH]c2ccccc12)C(=O)[O-]` (stereo not drawn): the emission maximum (in O) came to 350 nm.

On to `O=C1c2ccccc2-c2c(-c3cc(Cl)ccc3O)[nH]c(=O)n21`, for which the emission maximum (in CC#N) turned out to be 475 nm, the emission maximum (in CO) is reported as 493 nm and the emission maximum (in ClCCl) worked out at 475 nm.

As to `CC(C)(C)c1ccc(-c2nc3ccccc3nc2-c2cc(-c3nc4ccccc4nc3-c3ccc(C(C)(C)C)cc3)cc(-n3c4ccccc4c4ccccc43)c2)cc1`, under “in Cc1ccccc1”, the emission maximum turned out to be 437 nm.

`CN(C)c1ccc(C#Cc2cc(C#Cc3ccc(N(C)C)cc3)c3ccc4c(C#Cc5ccc(N(C)C)cc5)cc(C#Cc5ccc(N(C)C)cc5)c5ccc2c3c54)cc1` displayed an emission maximum (in ClCCl) of 562 nm.

Regarding `N=c1oc2ccccc2cc1-c1ccc([N+](=O)[O-])cc1`, the emission maximum runs as follows: (in C1CCOC1) 442 nm; (in CC#N) 550 nm; (in CS(C)=O) 589 nm; (in ClC(Cl)Cl) 436 nm.

For the compound `c1ccc(-c2nc(-c3ccccc3)nc(-c3ccc(-n4c5ccc(-c6ccc7oc8ccccc8c7c6)cc5c5cc(-c6ccc7oc8ccccc8c7c6)ccc54)cc3)n2)cc1`, the emission maximum (in CCOC(C)=O) was determined as 476 nm, the emission maximum (in CN(C)C=O) is 529 nm and the emission maximum (in Cc1ccccc1) worked out at 437 nm.

The compound `CCCCCCn1c2c(c3ccccc31)-c1c(c3ccccc3n1CCCCCC)-c1c(c3ccccc3n1CCCCCC)-c1c-2c2ccccc2n1CCCCCC` yielded an emission maximum (in ClCCl) of 352 nm.

In turn, `CC(C)(C)c1ccc2c(c1)c1cc(C(C)(C)C)ccc1n2-c1ccc(C#Cc2ccc(C=O)cc2)cc1` had an emission maximum (in ClCCl) of 528 nm.

`CCOC(=O)c1cc(C(=O)OCC)c2cc(N(CC)CC)ccc2n1` displayed an emission maximum (in CCO) of 561 nm.

Regarding `CN(C)c1ccc(/C=C(\C#N)c2nc3ccccc3s2)cc1`, the emission maximum reads like this: (in C1CCCCC1) 500 nm; (in CO) 520 nm.

As to `CCCCCCN1C(=O)c2cccc3c(-c4ccc(-c5cc(-c6ccc(Cl)cc6)nn5-c5ccccc5)s4)ccc(c23)C1=O`, under “in ClCCl”, the emission maximum is listed as 519 nm.

With `CC1(C)C(/C=C/C2=C(Oc3ccc(CCN=C=S)cc3)C(=C/C=C3/N(CCCS(=O)(=O)[O-])c4ccccc4C3(C)C)/CCC2)=[N+](CCCS(=O)(=O)[O-])c2ccccc21`, for the setting “in CO”, the emission maximum is 794 nm.

As for `CCCn1c2cccc3oc4cccc5oc6cccc1c6[c+](c45)c32`, the emission maximum (in CC#N) turned out to be 560 nm.

Take `CCOC(=O)C1=C(N)n2c(=O)c3ccccc3c(=O)n2C1c1ccc(C)cc1` (stereo not drawn): the emission maximum (in CS(C)=O) came to 517 nm.

Consider `CCC1=C(C)C2=Cc3c4ccccc4c4n3[B-](c3ccccc3)(Oc3ccccc3-4)[N+]2=C1C` (stereo not drawn), for which the emission maximum is, setting by setting: (in CC#N) 634 nm; (in CCCCCC) 636 nm; (in Cc1ccccc1) 640 nm; (in ClCCl) 638 nm.

`CC(C)(C)c1ccc2c3c(c4ccc(C(C)(C)C)cc4c2c1)=[N+]1C(=C(c2ccccc2)c2cc4c5ccc(C(C)(C)C)cc5c5cc(C(C)(C)C)ccc5c4n2[B-]1(F)F)C=3`: the emission maximum (in C1CCCCC1) worked out at 709 nm; the emission maximum (in C1CCOC1) is on record as 713 nm; the emission maximum (in CC#N) amounted to 712 nm; the emission maximum (in Cc1ccccc1) is reported as 713 nm; the emission maximum (in ClCCl) was 716 nm.

Where the note is “in CS(C)=O”, `Cc1ccc(-c2cc(/C=C/c3ccc(N(c4ccccc4)c4ccccc4)cc3)c(C#N)c(N3CCCCC3)c2)cc1` gave an emission maximum of 523 nm.

On to `Cc1cc(=O)c2c(ccc3ccc(O)cc32)o1`, for which, where the note is “in CC#N”, the emission maximum is reported as 430 nm.

Turning to `COC(=O)c1ccc(/C=C2\C=C(c3ccccc3)NC2=O)cc1`, where the note is “in C1COCCO1”, the emission maximum is recorded as 544 nm.

Regarding `CCNc1ccc(NCC)c2c1C(=O)c1ccccc1C2=O`, the emission maximum by setting is: (in C1CCCCC1) 670 nm; (in C1COCCO1) 684 nm; (in CC(C)=O) 671 nm; (in CCCCCCCCCCO) 672 nm; (in CCCCCCCO) 666 nm; (in CCCCCCO) 663 nm. The compound further registered an emission maximum (in CCCCO) of 670 nm; an emission maximum (in CCO) of 672 nm; an emission maximum (in CN(C)C=O) of 680 nm; an emission maximum (in CO) of 669 nm; an emission maximum (in CS(C)=O) of 672 nm; an emission maximum (in ClC(Cl)(Cl)Cl) of 679 nm. This compound also registered an emission maximum (in c1ccccc1) of 670 nm.

For `COC(=O)c1cc(=O)n(C)c2cc(-c3ccc(N(C)C)cc3)sc12`, the emission maximum was 599 nm (in CC#N) and 554 nm (in ClCCl).

Regarding `[NH3+]c1ccc2ccc(O)cc2c1`, the emission maximum (in O) came to 357 nm.

Under “in ClC(Cl)Cl”, `CCCCCCCCC1(CCCCCCCC)c2cc3c(cc2-c2sc(-c4ccc(/C=C5\SC(N6CCCCC6)=NC5=O)c5nsnc45)cc21)C(CCCCCCCC)(CCCCCCCC)c1cc(-c2ccc(/C=C4\SC(N5CCCCC5)=NC4=O)c4nsnc24)sc1-3` showed an emission maximum of 675 nm.

For `Cc1ccc(S(=O)(=O)/N=c2\oc3cccc4c5c(-c6ccccc6)oc6cccc(c(c2-c2ccccc2)c34)c65)cc1`, the emission maximum (in ClC(Cl)Cl) is given as 560 nm.

`C(=C\c1ccc(-c2nnc(-c3ccccc3)o2)cc1)/c1ccc(-c2nnc(-c3ccccc3)o2)cc1`: the emission maximum (in CN(C)C=O) came out at 415 nm.

For the compound `CCn1c2ccccc2c2cc(C#Cc3cc(C#Cc4ccc5c(c4)c4ccccc4n5CC)nc(C#N)n3)ccc21`, the emission maximum is recorded as 495 nm (in C1CCOC1); 494 nm (in CCOC(C)=O); 557 nm (in CN(C)C=O); 445 nm (in Cc1ccccc1); 510 nm (in ClCCl).

`COC(=O)COc1ccc(/C=C/C2=[N+]3C(=C(c4ccccc4)c4c(C)cc(C)n4[B-]3(F)F)C(C)=C2)cc1`: the emission maximum (in CO) is on record as 574 nm.

Consider `COc1ccc(C2=C3C=c4c(oc5cc6c(cc45)[C@H]4CC[C@]5(C)C(=O)CC[C@H]5[C@@H]4CC6)=[N+]3[B-](F)(F)n3c2cc2c4cc5c(cc4oc23)CC[C@@H]2[C@@H]5CC[C@]3(C)C(=O)CC[C@@H]23)cc1`, for which the emission maximum is, setting by setting: (in CCOC(C)=O) 615 nm; (in CCOCC) 611.5 nm; (in CO) 613.5 nm.

As for `CN(C)c1ccc(/C=C/C=C/c2ccc(B(O)O)cc2)cc1`, the emission maximum (in C1CCCCC1) is on record as 441 nm.

`Fc1nc(F)c(F)c(/C=C2/C(c3c(F)c(F)nc(F)c3F)=Cc3ccccc32)c1F` displayed an emission maximum (in CC#N) of 395 nm.

For `CC1(C)C(/C=C/C=C/c2cc3ccc(O)cc3oc2=O)=[N+](CCCS(=O)(=O)[O-])c2ccccc21`, the emission maximum is, setting by setting: (in CS(C)=O) 653 nm; (in O) 720 nm.

Turning to `CCOC(=O)COc1ccc(/C=C/C2=C3C(C)=CC(/C=C/c4ccc(OCC(=O)OCC)cc4)=[N+]3[B-](F)(F)n3c2c2ccccc2c3-c2[nH]c(C)cc2C)cc1`, the emission maximum (in ClCCl) is on record as 733 nm.

Consider `CN(C)c1ccc2cc3ccc(=[N+](C)C)cc-3oc2c1`, for which the emission maximum (in CCO) is on record as 568 nm and the emission maximum (in O) is 565 nm.

As to `Cc1ccccc1[B-]1(c2ccccc2C)n2nc(C(F)(F)F)cc2-c2c3ccccc3cc[n+]21`, the emission maximum came to 414 nm (in C1CCCCC1), 414 nm (in Cc1ccccc1) and 412 nm (in ClCCl).

On to `c1ccc(-c2ccc(-c3cc(-c4ccc(-c5ccccc5)cc4)cc(-c4ccc(-c5ccccc5)cc4)c3)cc2)cc1`, for which the emission maximum (in C1COCCO1) stood at 364 nm.

In turn, `COc1ccc(-c2cnc(-c3ccccc3)o2)cc1OC` had an emission maximum (in ClCCl) of 400 nm.

On to `CC(C)c1cc(C(C)C)c(B2c3cc(N4c5ccccc5Oc5ccccc54)ccc3N(c3ccccc3)c3ccc(N4c5ccccc5Oc5ccccc54)cc32)c(C(C)C)c1`, for which the emission maximum came to 554.08 nm (in C1CCOC1); 546.26 nm (in CCOC(C)=O); 510.2 nm (in Cc1ccccc1); 546.26 nm (in ClCCl); 512 nm under setting [1].

`COc1cc2c(c(OC)c1OC)c1ccc3cccc4c5cccc6oc(=O)c2c(c65)c1c34` gave an emission maximum (in C1CCOC1) of 492 nm.

With `COc1ccc2cc(C(C)C(=O)Oc3ccc(-c4c5nc(c(-c6ccc(C)cc6)c6ccc([nH]6)c(-c6ccc(C)cc6)c6nc(c(-c7ccc(C)cc7)c7ccc4[nH]7)C=C6)C=C5)cc3)ccc2c1` (stereo not drawn), where the note is “in ClCCl”, the emission maximum stood at 654 nm.

`O=S(=O)(c1cccc(N2c3ccccc3Sc3ccccc32)c1)c1cccc(N2c3ccccc3Sc3ccccc32)c1` displayed an emission maximum (in C1CCOC1) of 596 nm; an emission maximum (in CCCCC(CC)n1c2ccc(-n3c4ccccc4c4ccccc43)cc2c2cc(-n3c4ccccc4c4ccccc43)ccc21) of 554.57 nm; an emission maximum (in Cc1ccccc1) of 561 nm; an emission maximum (in ClC(Cl)Cl) of 579 nm; an emission maximum (in c1cc(-n2c3ccccc3c3ccccc32)cc(-n2c3ccccc3c3ccccc32)c1) of 550.83 nm.

`CC(C)(C)c1ccc2c(c1)c1cc(C(C)(C)C)ccc1n2-c1ccc(N(c2ccc(-c3ccc(-c4ccc(N(c5ccc(-n6c7ccc(C(C)(C)C)cc7c7cc(C(C)(C)C)ccc76)cc5)c5ccc(-n6c7ccc(C(C)(C)C)cc7c7cc(C(C)(C)C)ccc76)cc5)cc4)s3)cc2)c2ccc(-n3c4ccc(C(C)(C)C)cc4c4cc(C(C)(C)C)ccc43)cc2)cc1` showed an emission maximum (in ClCCl) of 465 nm.
